Source: US6878698B2, “Anti-inflammatory androstane derivatives” (Glaxo Group Limited, priority 2001, dated 2005)
“Also recorded” adds a separate entry of the source. Blank lines part the entries; values can stand above or below the compound they belong to.

How the values were obtained:
glucocorticoid receptor = biological target: T1, glucocorticoid receptor (Homo sapiens, UniProt P04150); test: Functional in vitro assay of glucocorticoid agonist activity (A549 cells, NF-κB/ELAM promoter sPAP reporter, TNF stimulated); type: cell-based; settings: for EC50: A549 cells, NF-κB responsive sPAP reporter, compound 1 hour at 37° C., then TNF 10 ng/ml for 16 hours
T1 construct: A549 cells stably transfected with a reporter gene containing the NF-κB responsive elements from the ELAM gene promoter; endogenous in cells; host or cells: A549 cells stably transfected with the reporter gene only
T1 sequence (P04150 1-777): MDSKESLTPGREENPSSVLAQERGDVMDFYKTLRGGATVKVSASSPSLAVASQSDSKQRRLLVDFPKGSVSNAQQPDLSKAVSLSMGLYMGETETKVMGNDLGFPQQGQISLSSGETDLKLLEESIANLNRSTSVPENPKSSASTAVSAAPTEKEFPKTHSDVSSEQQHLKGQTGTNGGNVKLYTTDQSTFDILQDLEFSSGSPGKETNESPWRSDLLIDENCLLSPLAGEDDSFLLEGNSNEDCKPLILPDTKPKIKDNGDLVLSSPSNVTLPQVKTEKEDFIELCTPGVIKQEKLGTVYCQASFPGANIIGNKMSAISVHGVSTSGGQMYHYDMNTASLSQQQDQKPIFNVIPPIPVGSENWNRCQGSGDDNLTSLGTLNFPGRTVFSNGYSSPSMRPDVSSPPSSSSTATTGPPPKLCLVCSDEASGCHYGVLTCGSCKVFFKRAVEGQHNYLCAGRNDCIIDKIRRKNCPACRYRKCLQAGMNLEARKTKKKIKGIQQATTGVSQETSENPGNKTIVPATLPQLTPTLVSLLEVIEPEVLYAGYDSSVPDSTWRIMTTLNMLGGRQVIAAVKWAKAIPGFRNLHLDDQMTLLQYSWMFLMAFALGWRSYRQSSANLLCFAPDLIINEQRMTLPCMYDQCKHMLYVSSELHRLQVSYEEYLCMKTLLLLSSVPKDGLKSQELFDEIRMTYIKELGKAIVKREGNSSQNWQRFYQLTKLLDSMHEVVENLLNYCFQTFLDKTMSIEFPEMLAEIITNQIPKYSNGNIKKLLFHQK
Procedure: Pharmacological activity was assessed in a functional in vitro assay of glucocorticoid agonist activity which is generally predictive of anti-inflammatory or anti-allergic activity in vivo.
A549 cells stably transfected with a reporter gene containing the NF-κB responsive elements from the ELAM gene promoter coupled to sPAP (secreted alkaline phosphatase) were treated with test compounds at appropriate doses for 1 hour at 37° C. […] Dose response curves were constructed from which EC50 values were estimated.

lung eosinophilia = test: Ovalbumin sensitised Brown Norway rat eosinophilia model; type: in vivo; settings: for inhibition of lung eosinophilia: single intra-tracheal dose of 30 μg, suspension in saline, 30 min prior to ovalbumin challenge
Procedure: Pharmacological activity in vivo was assessed in an ovalbumin sensitised Brown Norway rat eosinophilia model. This model is designed to mimic allergen induced lung eosinophilia, a major component of lung inflammation in asthma.

thymus weight = test: Rat model of thymus involution; type: in vivo; settings: 3 daily IT doses of 100 μg
[1] = Pharmacokinetics after intra-tracheal dry powder dosing in the pig; type: in vivo; settings: for time after dosing up to which quantifiable in plasma / AUC (0-inf): 1 mg intra-tracheal dry powder; for time after dosing up to which quantifiable in plasma: LC-MS/MS, lower limits of quantitation 10 and 20 pg/mL; for Cmax: 1 mg intra-tracheal dry powder blend in lactose, anaesthetised; for AUC (0-inf): Example 1 value calculated with plasma half-life from IV dosing
Procedure: Serial blood samples were taken for up to 8 h following dosing.

[2] = Pharmacokinetics after intravenous administration in the anaesthetised pig; type: in vivo; settings: mixture of the two compounds IV at 0.1 mg/kg
Text: The clearance of these two glucocortocoids is similar is this experimental pig model.

in vivo = settings: male, Wistar Han, rat, plasma, iv, 0.1 mg/kg
[3] = Pharmacokinetics after intravenous (IV) and oral dosing in rats; settings: for plasma clearance (in words): in vivo in the rat
human hepatocytes = test: In vitro metabolism in human hepatocytes; type: in vitro ADME; settings: 17-β carboxylic acid (X) the only significant metabolite
rat hepatocytes = test: In vitro metabolism in rat hepatocytes; type: in vitro ADME; settings: 17-β carboxylic acid (X) the only significant metabolite
[4] = biological target: T2, glucocorticoid receptor (GR) (Homo sapiens, UniProt P04150); test: Transactivation (GR): renilla luciferase reporter with glucocorticoid response elements in A549 cells; type: cell-based; settings: GRE renilla luciferase reporter, 1 h compound, then 0.5 ng/ml TNFα, further 15 hours, read-out: Transactivation (GR) ED50
Text: (§1) The glucocorticoid receptor (GR) can function in at least two distinct mechanisms, by upregulating gene expression through the direct binding of GR to specific sequences in gene promoters, and by downregulating gene expression that is being driven by other transcription factors (such as NFκB or AP-1) through their direct interaction with GR.
(§2) The first cell line contains the firefly luciferase reporter gene under the control of a synthetic promoter that specifically responds to activation of the transcription factor NFκB when stimulated with TNFα. The second cell line contains the renilla luciferase reporter gene under the control of a synthetic promotor that comprises 3 copies of the consensus glucocorticoid response element, and which responds to direct stimulation by glucocorticoids. Simultaneous measurement of transactivation and transrepression was conducted by mixing the two cell lines in a 1:1 ratio in 96 well plate (40,000 cells per well) and growing overnight at 37° C. Test compounds were dissolved in DMSO, and added to the cells at a final DMSO concentration of 0.7%. After incubation for 1 h 0.5 ng/ml TNFα (R&D Systems) was added and after a further 15 hours at 37° C., the levels of firefly and renilla luciferase were measured using the Packard Firelite kit following the manufacturers' directions. Dose response curves were constructed from which EC50 values were determined.

[5] = biological target: T2, glucocorticoid receptor (GR); test: Transrepression (NFκB): firefly luciferase NFκB reporter in A549 cells stimulated with TNFα; type: cell-based; settings: 1 h compound, then 0.5 ng/ml TNFα, further 15 hours, read-out: Transrepression (NFκB) ED50
Text: as §1, §2

Compound: C[C@@H]1C[C@H]2[C@@H]3C[C@H](F)C4=CC(=O)C=C[C@]4(C)[C@@]3(F)[C@@H](O)C[C@]2(C)[C@@]1(OC(=O)c1cc(Cl)sc1Cl)C(=O)SCF [Example 14, 17α-[(2,5-Dichlorothiophene-3-carbonyl)oxy]-6α,9α-difluoro-11β-hydroxy-16α-methyl-3-oxo-androsta-1,4-diene-17β-carbothioic acid S-fluoromethyl ester]
EC50 (glucocorticoid receptor): 2 nM

reduction of thymus weight (thymus weight): 78% | time after dosing up to which quantifiable in plasma [1]: up to 8 hours | clearance (in words) [2]: similar | pharmacokinetic parameters following intravenous administration (in words) [2]: the same
Compound: CCC(=O)O[C@]1(C(=O)SCF)[C@H](C)C[C@H]2[C@@H]3C[C@H](F)C4=CC(=O)C=C[C@]4(C)[C@@]3(F)[C@@H](O)C[C@@]21C [Fluticasone propionate, 6α, 9α-Difluoro-17α-(1-oxopropoxy)-11β-hydroxy-16α-methyl-3-oxo-androsta-1,4-diene-17β-carbothioic acid S-fluoromethyl ester, reference compound]
inhibition of lung eosinophilia (lung eosinophilia): 41%

Compound: CC1CC2C3CC(F)C4=CC(=O)C=CC4(C)C3(F)C(O)CC2(C)C1(OC(=O)c1ccon1)C(=O)SCF (stereo not drawn) [Example 28, 6α,9α-Difluoro-11β-hydroxy-17α-[(isoxazole-3-carbonyl)oxy]-16α-methyl-3-oxo-androsta-1,4-diene-17β-carbothioic acid S-fluoromethyl ester]
clearance (in vivo): 51 mL/min/kg | plasma clearance (in words) [3]: approaching hepatic blood flow

Compound: Cc1noc(C)c1C(=O)O[C@]1(C(=O)SCF)[C@H](C)C[C@H]2[C@@H]3C[C@H](F)C4=CC(=O)C=C[C@]4(C)[C@@]3(F)[C@@H](O)C[C@@]21C [Example 10, 6α,9α-Difluoro-17α-[(3,5-dimethylisoxazole-4-carbonyl)oxy]-11β-hydroxy-16α-methyl-3-oxo-androsta-1,4-diene-17β-carbothioic acid S-fluoromethyl ester]
EC50 (glucocorticoid receptor): 1 nM

Compound: CC1CC2C3CC(F)C4=CC(=O)C=CC4(C)C3(F)C(O)CC2(C)C1(OC(=O)c1ccsc1)C(=O)SCF (stereo not drawn) [Example 4, 6α,9α-Difluoro-11β-hydroxy-16α-methyl-3-oxo-17α-[(3-thienylcarbonyl)oxy]-androsta-1,4-diene-17β-carbothioic acid S-fluoromethyl ester]
clearance (in vivo): 49 mL/min/kg | plasma clearance (in words) [3]: approaching hepatic blood flow

Compound: Cc1ccoc1C(=O)OC1(C(=O)SCF)C(C)CC2C3CC(F)C4=CC(=O)C=CC4(C)C3(F)C(O)CC21C (stereo not drawn) [Example 19, 6α,9α-Difluoro-11β-hydroxy-16α-methyl-17α-[(3-methylfuran-2-carbonyl)oxy]-3-oxo-androsta-1,4-diene-17β-carbothioic acid S-fluoromethyl ester]
clearance (in vivo): 48 mL/min/kg | plasma clearance (in words) [3]: approaching hepatic blood flow

Compound: Cc1cc(C(=O)OC2(C(=O)SCF)C(C)CC3C4CC(F)C5=CC(=O)C=CC5(C)C4(F)C(O)CC32C)on1 (stereo not drawn) [Example 25, 6α,9α-Difluoro-11β-hydroxy-16α-methyl-17α-[(3-methylisoxazole-5-carbonyl)oxy]-3-oxo-androsta-1,4-diene-17β-carbothioic acid S-fluoromethyl ester]
clearance (in vivo): 46 mL/min/kg | plasma clearance (in words) [3]: approaching hepatic blood flow

Compound: Cc1nc(C)c(C(=O)O[C@]2(C(=O)SCF)[C@H](C)C[C@H]3[C@@H]4C[C@H](F)C5=CC(=O)C=C[C@]5(C)[C@@]4(F)[C@@H](O)C[C@@]32C)s1 [Example 23, 6α,9α-Difluoro-17α-[(2,4-dimethyl-1,3-thiazole-5-carbonyl)oxy]-11β-hydroxy-16α-methyl-3-oxo-androsta-1,4-diene-17 β-carbothioic acid S-fluoromethyl ester]
EC50 (glucocorticoid receptor): 17 nM

Compound: Cc1cc(C(=O)OC2(C(=O)SCF)C(C)CC3C4CC(F)C5=CC(=O)C=CC5(C)C4(F)C(O)CC32C)no1 (stereo not drawn) [Example 24, 6α,9α-Difluoro-11β-hydroxy-16α-methyl-17α-[(5-methylisoxazole-3-carbonyl)oxy]-3-oxo-androsta-1,4-diene-17β-carbothioic acid S-fluoromethyl ester]
clearance (in vivo): 47 mL/min/kg | plasma clearance (in words) [3]: approaching hepatic blood flow

Compound: C[C@@H]1CC2C3C[C@H](F)C4=CC(=O)C=C[C@]4(C)[C@@]3(F)[C@@H](O)C[C@]2(C)[C@@]1(OC(=O)c1ccco1)C(=O)SCF (stereo partly drawn) [Example 1, 6α,9α-Difluoro-17α-[(2-furanylcarbonyl)oxy]-11β-hydroxy-16α-methyl-3-oxo-androsta-1,4-diene-17β-carbothioic acid S-fluoromethyl ester]
inhibition of lung eosinophilia (in words) (lung eosinophilia; intra-tracheal suspension in saline 30 min prior to ovalbumin challenge): dose dependant inhibition | inhibition of lung eosinophilia (lung eosinophilia): 69% | reduction of thymus weight (thymus weight): 67% | manner of metabolism (in words) (human hepatocytes): metabolised in an identical manner to fluticasone propionate | manner of metabolism (in words) (rat hepatocytes): metabolised in an identical manner to fluticasone propionate | time after dosing up to which quantifiable in plasma [1]: up to 2 hours | Cmax ([1]; Pig 1): 0.117 ng/mL | AUC (0-inf) ([1]; Pig 1): 0.254 ng·h/mL | Cmax ([1]; Pig 2): 0.081 ng/mL | AUC (0-inf) ([1]; Pig 2): 0.221 ng·h/mL | systemic exposure compared to fluticasone propionate (in words) ([1]; dry powder delivery to the lungs of anaesthetised pigs): markedly reduced systemic exposure; also recorded: significantly lower exposure | clearance (in words) [2]: similar | pharmacokinetic parameters following intravenous administration (in words) [2]: the same | plasma clearance ([3]; IV 0.1 mg/kg, male Wistar Han rats): 47.3 mL/min/kg | plasma clearance (in words) [3]: approaching hepatic blood flow

Compound: Cc1ncsc1C(=O)OC1(C(=O)SCF)C(C)CC2C3CC(F)C4=CC(=O)C=CC4(C)C3(F)C(O)CC21C (stereo not drawn) [Example 41, 6α,9α-Difluoro-11β-hydroxy-16α-methyl-17α-[(4-methyl-1,3-thiazole-5-carbonyl)oxy]-3-oxo-androsta-1,4-diene-17β-carbothioic acid S-fluoromethyl ester]
clearance (in vivo): 42 mL/min/kg

Compound: C[C@@H]1C[C@H]2[C@@H]3C[C@H](F)C4=CC(=O)C=C[C@]4(C)[C@@]3(F)[C@@H](O)C[C@]2(C)[C@@]1(OC(=O)c1ccco1)C(=O)O [Metabolite (X)]
fold less active than the parent compound (glucocorticoid receptor; in vitro functional glucocorticoid agonist assays, relative to Example 1): > 1000 fold | EC50 [4]: > 250 nM | EC50 [5]: > 1000 nM
